Laboratory results as given in patent US20070082953A1, “Use of l-dopa, derivatives thereof and medicaments comprising said compounds for the prophylaxis of psychotic diseases” (priority 2003, published 2007).

Test system: patients with acute schizophrenia
Assay: Relapse prophylaxis in schizophrenia patients withdrawn from fluphenazine maintenance therapy
Assay type: in vivo
Details: ten clinically stable patients taken off fluphenazine; L-dopa or L-dopa combination preparation given 2 months prior to withdrawal and during the entire withdrawal phase; about 8 of 10 relapses expected within 12 months per literature
Description: Ten patients with acute schizophrenia, who had accordingly received maintenance therapy with fluphenazine for more than one year and were clinically stable, were successively taken off this drug. According to clinical experience (see Gitlin M., Nuechterlein K., Subotnik K. L. et al., Am. J. Psychiatry (2001) 158(11), pp. 1835-42), about 8 of the 10 patients would be expected to suffer a relapse within the following 12 months. Our patients were treated with L-dopa or a combination preparation containing L-dopa for 2 months prior to withdrawal and during the entire withdrawal phase. In these patients, a relapse occurred in only 2 of 10 cases.

SMILES: N[C@@H](Cc1ccc(O)c(O)c1)C(=O)O [L-dopa, 3,4-dihydroxy-L-phenylalanine]
- relapse occurred (cases with relapse out of patients treated): 2 of 10
